Legend:
Format in all cases: in vivo
[1] = test system: ivy-leaved morning glory (Ipomoea hederacea); assay: Test G Post-Emergence Protocol; conditions: Ipomoea, post-emergence, 312 h; for pest or weed control at 15.625 g/ha: 15.625 g ai/ha, evaluated after 13 days (100=total damage to plant; 0=no damage to plant), read-out: Morningglory, Ivy-leaved damage rating; for pest or weed control at 62.5 g/ha: 62.5 g ai/ha, read-out: Morningglory, Ivy-leaved damage rating (100=total damage to plant; 0=no damage to plant); for pest or weed control at 62.5 g/ha / pest or weed control at 250 g/ha: evaluated after 13 days; for pest or weed control at 250 g/ha: 250 g ai/ha, read-out: damage to plant, Morningglory, Ivy-leaved (100=total damage to plant; 0=no damage to plant)
Summary of the method: (§1)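 Scores run 0 (no damage) to 100 (total damage) and were taken 13 days after spraying. Plants had been raised in pots for 8 days under glasshouse control (24/16 °C, 14 h photoperiod, 65% humidity) and then treated at 15.625, 62.5 or 250 g/ha.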

[2] = test system: barnyardgrass (Echinochloa crus-galli); assay: Test G Post-Emergence Protocol; conditions: Echinochloa crus-galli, post-emergence, 312 h; for pest or weed control at 15.625 g/ha: 15.625 g ai/ha, evaluated after 13 days (100=total damage to plant; 0=no damage to plant), read-out: Barnyardgrass damage rating; for pest or weed control at 62.5 g/ha: 62.5 g ai/ha, read-out: Barnyardgrass damage rating (100=total damage to plant; 0=no damage to plant); for pest or weed control at 62.5 g/ha / pest or weed control at 250 g/ha: evaluated after 13 days; for pest or weed control at 250 g/ha: 250 g ai/ha, read-out: damage to plant, Barnyardgrass (100=total damage to plant; 0=no damage to plant)
Summary of the method: as §1

[3] = test system: giant foxtail (Setaria faberi); assay: Test G Post-Emergence Protocol; conditions: Setaria faberi, post-emergence, 312 h; for pest or weed control at 15.625 g/ha: 15.625 g ai/ha, evaluated after 13 days (100=total damage to plant; 0=no damage to plant), read-out: Foxtail, Giant damage rating; for pest or weed control at 62.5 g/ha: 62.5 g ai/ha, read-out: Foxtail, Giant damage rating (100=total damage to plant; 0=no damage to plant); for pest or weed control at 62.5 g/ha / pest or weed control at 250 g/ha: evaluated after 13 days; for pest or weed control at 250 g/ha: 250 g ai/ha, read-out: damage to plant, Foxtail, Giant (100=total damage to plant; 0=no damage to plant)
Summary of the method: as §1

[4] = test system: velvetleaf (Abutilon theophrasti); assay: Test G Post-Emergence Protocol; conditions: Abutilon theophrasti, post-emergence, 312 h; for pest or weed control at 15.625 g/ha: 15.625 g ai/ha, evaluated after 13 days (100=total damage to plant; 0=no damage to plant), read-out: Velvetleaf damage rating; for pest or weed control at 62.5 g/ha: 62.5 g ai/ha, read-out: Velvetleaf damage rating (100=total damage to plant; 0=no damage to plant); for pest or weed control at 62.5 g/ha / pest or weed control at 250 g/ha: evaluated after 13 days; for pest or weed control at 250 g/ha: 250 g ai/ha, read-out: damage to plant, Velvetleaf (100=total damage to plant; 0=no damage to plant)
Summary of the method: as §1

[5] = test system: redroot pigweed (Amaranthus retroflexus); assay: Test G Post-Emergence Protocol; conditions: Amaranthus retroflexus, post-emergence, 312 h; for pest or weed control at 15.625 g/ha: 15.625 g ai/ha, evaluated after 13 days (100=total damage to plant; 0=no damage to plant), read-out: Pigweed, Redroot damage rating; for pest or weed control at 62.5 g/ha: 62.5 g ai/ha, read-out: Pigweed, Redroot damage rating (100=total damage to plant; 0=no damage to plant); for pest or weed control at 62.5 g/ha / pest or weed control at 250 g/ha: evaluated after 13 days; for pest or weed control at 250 g/ha: 250 g ai/ha, read-out: damage to plant, Pigweed, Redroot (100=total damage to plant; 0=no damage to plant)
Summary of the method: as §1

corn (Zea mays) [6] = assay: Test G Post-Emergence Protocol; conditions: Zea mays, post-emergence, 312 h; for plant injury at 15.625 g/ha: 15.625 g ai/ha, evaluated after 13 days (100=total damage to plant; 0=no damage to plant), read-out: Corn damage rating; for plant injury at 62.5 g/ha: 62.5 g ai/ha, read-out: Corn damage rating (100=total damage to plant; 0=no damage to plant); for plant injury at 62.5 g/ha / plant injury at 250 g/ha: evaluated after 13 days; for plant injury at 250 g/ha: 250 g ai/ha, read-out: damage to plant, Corn (100=total damage to plant; 0=no damage to plant)
Summary of the method: as §1

[7] = test system: ivy-leaved morning glory (Ipomoea hederacea); assay: Test G Pre-Emergence Protocol; conditions: Ipomoea, pre-emergence, 312 h, evaluated after 13 days; for pest or weed control at 15.625 g/ha: 15.625 g ai/ha, read-out: Morning-glory, Ivy-leaved damage rating (100=total damage to plant; 0=no damage to plant); for pest or weed control at 62.5 g/ha: 62.5 g ai/ha, 100=total damage to plant, 0=no damage to plant, read-out: plant damage rating, Morningglory, Ivy-leaved; for pest or weed control at 250 g/ha: 250 g ai/ha, read-out: Morningglory, Ivy-leaved damage rating (100=total damage to plant; 0=no damage to plant)
Summary of the method: (§2)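 Spraying took place one day after sowing, at 15.625, 62.5 or 250 g/ha, using an acetone/water (50:50) spray solution containing 0.5% Tween 20. Plants were kept under glasshouse conditions (24/16 °C, 14 h light, 65% humidity, watered twice daily), and injury was rated 0–100 at day 13.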

[8] = test system: barnyardgrass (Echinochloa crus-galli); assay: Test G Pre-Emergence Protocol; conditions: Echinochloa crus-galli, pre-emergence, 312 h, evaluated after 13 days; for pest or weed control at 15.625 g/ha: 15.625 g ai/ha, read-out: Barnyard grass damage rating (100=total damage to plant; 0=no damage to plant); for pest or weed control at 62.5 g/ha: 62.5 g ai/ha, 100=total damage to plant, 0=no damage to plant, read-out: plant damage rating, Barnyardgrass; for pest or weed control at 250 g/ha: 250 g ai/ha, read-out: Barnyardgrass damage rating (100=total damage to plant; 0=no damage to plant)
Summary of the method: as §2

[9] = test system: giant foxtail (Setaria faberi); assay: Test G Pre-Emergence Protocol; conditions: Setaria faberi, pre-emergence, 312 h, evaluated after 13 days; for pest or weed control at 15.625 g/ha: 15.625 g ai/ha; for pest or weed control at 15.625 g/ha / pest or weed control at 250 g/ha: read-out: Foxtail, Giant damage rating (100=total damage to plant; 0=no damage to plant); for pest or weed control at 62.5 g/ha: 62.5 g ai/ha, 100=total damage to plant, 0=no damage to plant, read-out: plant damage rating, Foxtail, Giant; for pest or weed control at 250 g/ha: 250 g ai/ha
Summary of the method: as §2

[10] = test system: velvetleaf (Abutilon theophrasti); assay: Test G Pre-Emergence Protocol; conditions: Abutilon theophrasti, pre-emergence, 312 h, evaluated after 13 days; for pest or weed control at 15.625 g/ha: 15.625 g ai/ha; for pest or weed control at 15.625 g/ha / pest or weed control at 250 g/ha: read-out: Velvetleaf damage rating (100=total damage to plant; 0=no damage to plant); for pest or weed control at 62.5 g/ha: 62.5 g ai/ha, 100=total damage to plant, 0=no damage to plant, read-out: plant damage rating, Velvetleaf; for pest or weed control at 250 g/ha: 250 g ai/ha
Summary of the method: as §2

[11] = test system: redroot pigweed (Amaranthus retroflexus); assay: Test G Pre-Emergence Protocol; conditions: Amaranthus retroflexus, pre-emergence, 312 h, evaluated after 13 days; for pest or weed control at 15.625 g/ha: 15.625 g ai/ha; for pest or weed control at 15.625 g/ha / pest or weed control at 250 g/ha: read-out: Pigweed, Redroot damage rating (100=total damage to plant; 0=no damage to plant); for pest or weed control at 62.5 g/ha: 62.5 g ai/ha, 100=total damage to plant, 0=no damage to plant, read-out: plant damage rating, Pigweed, Redroot; for pest or weed control at 250 g/ha: 250 g ai/ha
Summary of the method: as §2

corn (Zea mays) [12] = assay: Test G Pre-Emergence Protocol; conditions: Zea mays, pre-emergence, 312 h, evaluated after 13 days; for plant injury at 15.625 g/ha: 15.625 g ai/ha; for plant injury at 15.625 g/ha / plant injury at 250 g/ha: read-out: Corn damage rating (100=total damage to plant; 0=no damage to plant); for plant injury at 62.5 g/ha: 62.5 g ai/ha, 100=total damage to plant, 0=no damage to plant, read-out: plant damage rating, Corn; for plant injury at 250 g/ha: 250 g ai/ha
Summary of the method: as §2

SMILES	pest or weed control at 15.625 g/ha [1]	pest or weed control at 62.5 g/ha [1]	pest or weed control at 250 g/ha [1]	pest or weed control at 15.625 g/ha [2]	pest or weed control at 62.5 g/ha [2]	pest or weed control at 250 g/ha [2]	pest or weed control at 15.625 g/ha [3]	pest or weed control at 62.5 g/ha [3]	pest or weed control at 250 g/ha [3]	pest or weed control at 15.625 g/ha [4]	pest or weed control at 62.5 g/ha [4]	pest or weed control at 250 g/ha [4]	pest or weed control at 15.625 g/ha [5]	pest or weed control at 62.5 g/ha [5]	pest or weed control at 250 g/ha [5]	plant injury at 15.625 g/ha (corn (Zea mays) [6])	plant injury at 62.5 g/ha (corn (Zea mays) [6])	plant injury at 250 g/ha (corn (Zea mays) [6])	pest or weed control at 15.625 g/ha [7]	pest or weed control at 62.5 g/ha [7]	other results
CCOC(=O)c1cccc([C@H]2CN(C)C(=O)[C@@H]2C(=O)Nc2ccccc2F)c1 (racemic) [Compound 1438]	0%	0%	0%	0%	0%	0%	0%	0%	0%	0%	0%	0%	0%	0%	10%	0%	0%	0%	0%	0%	pest or weed control at 250 g/ha [7]: 0%; pest or weed control at 15.625 g/ha [8]: 0%; pest or weed control at 62.5 g/ha [8]: 0%; pest or weed control at 250 g/ha [8]: 0%; pest or weed control at 15.625 g/ha [9]: 0%; pest or weed control at 62.5 g/ha [9]: 0%; pest or weed control at 250 g/ha [9]: 20%; pest or weed control at 15.625 g/ha [10]: 0%; pest or weed control at 62.5 g/ha [10]: 0%; pest or weed control at 250 g/ha [10]: 0%; pest or weed control at 15.625 g/ha [11]: 0%; pest or weed control at 62.5 g/ha [11]: 0%; pest or weed control at 250 g/ha [11]: 0%; plant injury at 15.625 g/ha (corn (Zea mays) [12]): 0%; plant injury at 62.5 g/ha (corn (Zea mays) [12]): 0%; plant injury at 250 g/ha (corn (Zea mays) [12]): 0%
Cc1cc(Cl)ccc1NC(=O)[C@H]1C(=O)N(C)C[C@@H]1c1ccc(C(F)(F)F)cc1 (racemic) [Compound 1442]	0%	0%	0%	0%	0%	0%	0%	0%	0%	0%	0%	0%	0%	0%	0%	0%	0%	0%	0%	0%	pest or weed control at 250 g/ha [7]: 0%; pest or weed control at 15.625 g/ha [8]: 0%; pest or weed control at 62.5 g/ha [8]: 0%; pest or weed control at 250 g/ha [8]: 0%; pest or weed control at 15.625 g/ha [9]: 0%; pest or weed control at 62.5 g/ha [9]: 0%; pest or weed control at 250 g/ha [9]: 30%; pest or weed control at 15.625 g/ha [10]: 0%; pest or weed control at 62.5 g/ha [10]: 0%; pest or weed control at 250 g/ha [10]: 10%; pest or weed control at 15.625 g/ha [11]: 0%; pest or weed control at 62.5 g/ha [11]: 0%; pest or weed control at 250 g/ha [11]: 10%; plant injury at 15.625 g/ha (corn (Zea mays) [12]): 0%; plant injury at 62.5 g/ha (corn (Zea mays) [12]): 0%; plant injury at 250 g/ha (corn (Zea mays) [12]): 0%
C=C(C)c1ccccc1NC(=O)[C@H]1C(=O)N(C)C[C@@H]1c1ccc(C(F)(F)F)cc1 (racemic) [Compound 1449]	0%	0%	10%	0%	10%	30%	0%	20%	60%	0%	0%	0%	0%	0%	30%	0%	0%	10%	0%	0%	pest or weed control at 250 g/ha [7]: 0%; pest or weed control at 15.625 g/ha [8]: 0%; pest or weed control at 62.5 g/ha [8]: 0%; pest or weed control at 250 g/ha [8]: 30%; pest or weed control at 15.625 g/ha [9]: 10%; pest or weed control at 62.5 g/ha [9]: 70%; pest or weed control at 250 g/ha [9]: 80%; pest or weed control at 15.625 g/ha [10]: 0%; pest or weed control at 62.5 g/ha [10]: 0%; pest or weed control at 250 g/ha [10]: 0%; pest or weed control at 15.625 g/ha [11]: 0%; pest or weed control at 62.5 g/ha [11]: 0%; pest or weed control at 250 g/ha [11]: 0%; plant injury at 15.625 g/ha (corn (Zea mays) [12]): 0%; plant injury at 62.5 g/ha (corn (Zea mays) [12]): 0%; plant injury at 250 g/ha (corn (Zea mays) [12]): 0%
